“And” between values parts separate entries of the source, which are not always exact repeats. Equal entries are not always repeated. Values belong to the compound of their own block, whether it stands above or below them.
Legend:
[1] = system: microsomal pellet from chicory roots; assay: Conversion of (+)-valencene by a microsomal pellet of chicory in the presence of NADPH; settings: 100% = hydroxylation rate of β-selinene, 60 min
Procedure: The enzyme suspension was divided in 1 mL aliquots and incubated with 50 μM (+)-valencene in the presence of a 1 mM NADPH-regenerating system that consisted of 1 mM NADPH, 5 mM glucose-6-phosphate, and 1.2 IU glucose-6-phosphate cehydrogenase. The initial concentration of substrate in each assay was 45 μM and all experiments were done in duplicate. To the blank assays no NADPH regenerating system was added, so that cytochrome P450 enzymes (including the (+)-germacrene A hydroxylase) were not active. After 60 minutes the incubations were stopped by storing them at −20° C. in a freezer.

[2] = system: (+)-germacrene A hydroxylase; assay: Competitive inhibition of hydroxylation by 50 μM (+)-germacrene A or 50 μM α-cubebene; settings: amorpha-4,11-diene alcohol (KI 1720), germacrene B alcohol (KI 1700)
[3] = system: NAD(P)+-dependent dehydrogenase(s); assay: Oxidation of alcohols by 150,000 g supernatant of chicory roots with NAD(P)+; type: biochemical, Cichorium intybus L.; settings: 100 μM substrate
Procedure: It was assumed that this β-nootkatol is an intermediate in the formation of nootkatone. For this reason incubations of 100 μM β-nootkatol were performed at pH 10 with NAD(P)^+and a 150,000 g supernatant of chicory roots, such as described for the conversion of (−)-elema-1,3,11(13)-12-ol and germacra-1(10),4,11(13)-trien-12-ol by NADP^+-dependent dehydrogenases by De Kraker et al. (2001). During incubation the added β-nootkatol was converted for more than 60% into nootkatone in the presence of either 1 mM NADP^+ or 1 mM NAD^+. In the absence of these cofactors conversion still amounted to 25%, whereas the boiled enzyme extract gave no conversion of β-nootkatol. At pH 7.5, enzyme activity was slightlylower, whereas a 150,000 g pellet, as expected, yielded 3-fold less dehydrogenase activity than the corresponding supernatant.
To get some more information about the substrate specificity of the dehydrogenase(s) present in chicory roots, incubations with the 150,000 g supernatant were also performed with 100 μM trans,trans-farnesol as substrate (FIG. 19) in the presence of either NAD^+ or NADP^+. Trans,trans-farnesol was converted up to 60% into a mixture of trans,trans-farnesal and cis,trans-farnesal, and small amounts of farnesoic acid were observed as well.

Compound: C=C(C)[C@@H]1CCC2=CCC[C@@H](C)[C@]2(C)C1 [(+)-valencene]
Relative conversion to nootkatone [1]: 24.4% and 24.4 ± 1.1%
Relative conversion to valencen-12-ol [1]: 2.61% and 2.6 ± 0.1%

Inhibition (%) ± SD, Germacrene A, second product ([2]; 50 μM (+)-germacrene A added): 100.0%
Inhibition (%) ± SD, α-Cubebene, second product ([2]; 50 μM α-cubebene added): 27.3 ± 10%
Compound: CC(C)=C1C/C=C(\C)CC/C=C(\C)CC1 [germacrene B]

Conversion into nootkatone ([3]; pH 10, 1 mM NADP+ or 1 mM NAD+, 150,000 g supernatant): more than 60%
Conversion into nootkatone in the absence of cofactors ([3]; pH 10, no NAD(P)+): 25%
Compound: C=C(C)[C@@H]1CCC2=C[C@@H](O)C[C@@H](C)[C@]2(C)C1 [β-nootkatol]

From patent US7214507B2, “Plant enzymes for bioconversion” (Plant Research International B.V., priority 2001, dated 2007)
